We go through three compounds from patent US9265189B2, “Method for reducing damage by harmful organisms in corn cultivation” (SUMITOMO CHEMICAL COMPANY, LIMITED, priority 2012, dated 2016).

Common to all, as to type: in vivo
For assay [1], the system named is Diabrotica virgifera virgifera and Agriotes lineatus. The assay is described as follows: Field test, lodge rate, imidacloprid and cyprosulfamide in-furrow (Example 10). The following applies: imidacloprid 120 g/ha together with cyprosulfamide 15 g/ha in-furrow spray 125 L/ha, thiuram-treated seed, 165 days after application; example in present tense. The text has this: A chemical fertilizer (N:P:K=15:15:15) is applied to the soil surface of a cultivated land at 300 kg/ha, and the cultivated land is then plowed. 7 days after fertilization, for suppressing generation of weeds, the soil surface of the whole cultivated land is spray-treated with a mixed liquid containing thiencarbazone-methyl and isoxaflutole, each of which being a herbicide, at 150 L/ha so that the application amounts of thiencarbazone-methyl and isoxaflutole are 9.2 g/ha and 23 g/ha, respectively. 21 days after fertilization, using a pneumatic seeder (disk furrow opener) equipped with a power sprayer, a cultivated land is ditched at intervals of 75 cm to a depth of 3 cm from the soil surface, and the furrow is seeded with corn (Zea Mays; hybrid variety). The furrow is seeded at intervals of 20 cm using, as a seed of corn, one treated with thiuram. A seeding density of corn is 70000 seeds/ha. […] 165 days after application of the aqueous suspension of imidacloprid, the number of plants of corn lodged due to damage by Diabrotica virgifera virgifera and Agriotes lineatus in the furrows of the treatment section and the non-treatment section, for which the number of plants of corn germinated is investigated, is investigated, a lodge rate is calculated in accordance with the following equation, and then an average lodge rate for the four investigation sections is determined.

In the next assay the test system is Rhopalosiphum padi. The experiment in a line: Green house cup test, furrow drip treatment, Rhopalosiphum padi on corn (Example 6). The following applies: insects released 10 days after seeding, counted 7 days after insect releasing, 100×(A−B)/A. The procedure: A plastic cup (diameter 7 cm) having a volume of 390 ml was filled with a soil, a furrow was formed to a depth of 3 cm from the soil surface, the formed furrow was drip-treated with each of water-diluted liquids of a thiamethoxam water soluble powder (using a 10.0% preparation, trade name: Actara Water Soluble Powder, manufactured by Syngenta Japan K.K.), an imidacloprid water dispersible granule (using a 50.0% preparation, trade name: Admire Water dispersible Granule, manufactured by Bayer CropScience K.K.) and a thiacloprid water dispersible granule (using a 30.0% preparation, trade name: Bariard Water Dispersible Granule, manufactured by Bayer CropScience K.K.) so as to achieve the application amount described in Table 6, and then seeded with corn (variety name: Pioneer 32K61, hybrid variety) at a rate of one grain per cup, and the soil on the side of the furrow was gathered together to close the furrow. Corn was grown in a usual green house.
10 days after seeding of corn, 10 insects of Rhopalosiphum padi were released in each cup. This is called a treatment section.
On the other hand, except that a chemical was not applied, corn was grown in a usual green house in the same manner as in the treatment section, and 10 insects of Rhopalosiphum padi were released. This is called a non-chemical-treatment section.
7 days after insect releasing, the number of Rhopalosiphum padi was investigated, and a preventive value was calculated using the following equation. The results are shown in Table 6. preventive value=100×(A−B)/A
A: number of insects during investigation of non-chemical-treatment section
B: number of insects during investigation of treatment section

The test system of assay [2] is Diabrotica virgifera virgifera and Agriotes lineatus. The experiment in a line: Field test, lodge rate, imidacloprid in-furrow, herbicides plus cyprosulfamide on soil (Example 8). The following applies: imidacloprid 120 g/ha in-furrow spray 125 L/ha, thiuram-treated seed, 165 days after application; example in present tense. The text has this: A chemical fertilizer (N:P:K=15:15:15) is applied to the soil surface of a cultivated land at 300 kg/ha, and the cultivated land is then plowed. 7 days after fertilization, for suppressing generation of weeds, the soil surface of the whole cultivated land is spray-treated with a mixed liquid containing thiencarbazone-methyl and isoxaflutole, each of which being a herbicide, and cyprosulfamide which is a safener at 150 L/ha so that the application amounts of thiencarbazone-methyl, isoxaflutole and cyprosulfamide are 9.2 g/ha, 23 g/ha and 15 g/ha, respectively. 21 days after fertilization, using a pneumatic seeder (disk furrow opener) equipped with a power sprayer, a cultivated land is ditched at intervals of 75 cm to a depth of 3 cm from the soil surface, and the furrow is seeded with corn (Zea Mays; hybrid variety). […] 165 days after application of the aqueous suspension of imidacloprid, the number of plants of corn lodged due to damage by Diabrotica virgifera virgifera and Agriotes lineatus in the furrows of the treatment section and the non-treatment section, for which the number of plants of corn germinated is investigated, is investigated, a lodge rate is calculated in accordance with the following equation, and then an average lodge rate for the four investigation sections is determined.

Turning to `O=[N+]([O-])NC1=NCCN1Cc1ccc(Cl)nc1` [Imidacloprid], the “Lodge rate compared to non-treatment section” value in assay [1] and in assay [2] was “low lodge rate as compared to the non-treatment section” each time. In addition, the Preventive value with Rhopalosiphum padi (application amount 20 g/ha) and with Rhopalosiphum padi (application amount 200 g/ha) was 100 in each case.

Consider `N#C/N=C1\SCCN1Cc1ccc(Cl)nc1` [Thiacloprid], for which the Preventive value in the assay with Rhopalosiphum padi (application amount 20 g/ha) and with Rhopalosiphum padi (application amount 200 g/ha) was 100 throughout.

In the case of `CN1COCN(Cc2cnc(Cl)s2)/C1=N\[N+](=O)[O-]` [Thiamethoxam], the Preventive value in the assay with Rhopalosiphum padi (application amount 20 g/ha) and in the assay on Rhopalosiphum padi (application amount 200 g/ha) was 100 each time.
